Three compounds from patent US9765075B2, “Substituted bridged urea analogs as sirtuin modulators” (GLAXOSMITHKLINE LLC, priority 2013, dated 2017) can be followed below.

Changes are numbered by the printed parent chain. Where a name gives a salt, the structure may show the parent alone.

Common to all, as to assay type: biochemical
In one data set the target is T1, full-length hSIRT1 I227A (Homo sapiens, UniProt Q96EB6, I227A).
T1 construct: The following point mutants of full-length hSIRT1 were generated; His6 (C); made in house
T1 sequence (Q96EB6 1-747 I227A): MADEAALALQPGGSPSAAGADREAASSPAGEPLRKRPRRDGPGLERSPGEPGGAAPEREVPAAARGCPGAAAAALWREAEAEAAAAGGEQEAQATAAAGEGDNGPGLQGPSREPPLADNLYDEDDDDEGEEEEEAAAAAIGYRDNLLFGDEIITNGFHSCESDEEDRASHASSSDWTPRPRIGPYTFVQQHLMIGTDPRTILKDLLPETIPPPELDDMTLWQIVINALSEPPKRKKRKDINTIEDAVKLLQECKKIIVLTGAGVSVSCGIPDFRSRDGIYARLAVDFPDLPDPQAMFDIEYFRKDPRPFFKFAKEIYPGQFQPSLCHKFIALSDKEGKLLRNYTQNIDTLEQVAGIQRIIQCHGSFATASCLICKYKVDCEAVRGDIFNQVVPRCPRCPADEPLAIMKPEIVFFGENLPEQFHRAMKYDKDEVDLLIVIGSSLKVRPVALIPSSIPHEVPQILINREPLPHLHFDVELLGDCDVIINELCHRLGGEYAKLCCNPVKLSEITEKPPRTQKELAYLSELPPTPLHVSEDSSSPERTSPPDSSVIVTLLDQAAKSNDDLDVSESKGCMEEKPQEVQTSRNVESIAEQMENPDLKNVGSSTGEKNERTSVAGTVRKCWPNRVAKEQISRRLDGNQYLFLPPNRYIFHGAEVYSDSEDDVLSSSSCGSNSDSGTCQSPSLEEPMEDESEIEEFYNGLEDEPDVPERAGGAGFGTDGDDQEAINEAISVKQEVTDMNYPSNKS
Briefly: SIRT1 inhibition assay, OAcADPr mass spectrometry.

In data set [1] the target is T2, full-length hSIRT1 wild-type (Homo sapiens, UniProt Q96EB6).
T2 construct: Full-length human SIRT1 (hSIRT1) proteins were expressed with a C-terminal His6 tag; His6 (C); made in house
T2 sequence (Q96EB6 1-747): T1 sequence (Q96EB6 1-747 I227A) with A227I
Briefly: SIRT1 inhibition assay, OAcADPr mass spectrometry.

Another data set concerns the target T3, full-length hSIRT1 Q222A (Homo sapiens, UniProt Q96EB6, Q222A).
T3 construct: The following point mutants of full-length hSIRT1 were generated; made in house
T3 sequence (Q96EB6 1-747 Q222A): T1 sequence (Q96EB6 1-747 I227A) with Q222A, A227I
Briefly: SIRT1 inhibition assay, OAcADPr mass spectrometry.

The target in the next data set is T4, full-length hSIRT1 WT (Homo sapiens, UniProt Q96EB6).
T4 construct: Full-length human SIRT1 (hSIRT1) proteins were expressed with a C-terminal His6 tag; His6 (C); made in house
T4 sequence (Q96EB6 1-747): T1 sequence (Q96EB6 1-747 I227A) with A227I
Briefly: SIRT1 activation dose-response, OAcADPr assay with Ac-p53(W5) substrate. The note with it: for EC50: hSIRT1 WT, activation dose-response, Ac-p53(W5) substrate.

`CCCC[C@H](NC(=O)[C@H](CC(C)C)NC(=O)[C@H](CCCCNC(=O)C(F)(F)F)NC(=O)[C@H](CCCCN)NC(=O)[C@H](Cc1c[nH]cn1)NC(=O)[C@H](CCCNC(=N)N)NC(C)=O)C(=O)N[C@@H](Cc1ccccc1)C(N)=O` [TFA-p53 7-mer, Ac-RHK-K^TFA-L-Nle-F-NH2]: the IC50 against full-length hSIRT1 I227A stood at 940 ± 60 nM; in data set [1], 680 ± 70 nM; against full-length hSIRT1 Q222A, 630 ± 50 nM.

On to `O=C(Nc1ccccn1)N1c2nc(-c3cccc(C(F)(F)F)c3)ccc2N2CC[C@H]1C2` [Example 7], for which, at full-length hSIRT1 WT, the “EC50 fold shift (mutant EC50/wild-type EC50)” value came to 1.00, the “RVmax fold shift = (wild-type RVmax−1)/(mutant RVmax−1)” value was found to be 1.00 and the EC50 is 2200 nM.

On to `Cc1cnc2c(NC(=O)N3c4nc(-c5cccc(C(F)(F)F)c5)ccc4N4CC[C@H]3C4)cccc2n1` [Example 8], for which, on full-length hSIRT1 WT, the “EC50 fold shift (mutant EC50/wild-type EC50)” value is reported as 1.00, the “RVmax fold shift = (wild-type RVmax−1)/(mutant RVmax−1)” value amounted to 1.00 and the EC50 was 480 nM.
